PMC9500300, “Development of a novel Bruton’s tyrosine kinase inhibitor that exerts anti-cancer activities potentiates response of chemotherapeutic agents in multiple myeloma stem cell-like cells” (Frontiers in Pharmacology, 2022)
Structures can show the parent of a compound that is named as a salt.

Biological target: Bruton's tyrosine kinase (BTK) (Homo sapiens, UniProt Q06187)
Assay: ADP-Glo in vitro kinase assay with BTK enzyme (Promega)
Type: biochemical

Sequence of Bruton's tyrosine kinase (BTK) (Q06187 2-659): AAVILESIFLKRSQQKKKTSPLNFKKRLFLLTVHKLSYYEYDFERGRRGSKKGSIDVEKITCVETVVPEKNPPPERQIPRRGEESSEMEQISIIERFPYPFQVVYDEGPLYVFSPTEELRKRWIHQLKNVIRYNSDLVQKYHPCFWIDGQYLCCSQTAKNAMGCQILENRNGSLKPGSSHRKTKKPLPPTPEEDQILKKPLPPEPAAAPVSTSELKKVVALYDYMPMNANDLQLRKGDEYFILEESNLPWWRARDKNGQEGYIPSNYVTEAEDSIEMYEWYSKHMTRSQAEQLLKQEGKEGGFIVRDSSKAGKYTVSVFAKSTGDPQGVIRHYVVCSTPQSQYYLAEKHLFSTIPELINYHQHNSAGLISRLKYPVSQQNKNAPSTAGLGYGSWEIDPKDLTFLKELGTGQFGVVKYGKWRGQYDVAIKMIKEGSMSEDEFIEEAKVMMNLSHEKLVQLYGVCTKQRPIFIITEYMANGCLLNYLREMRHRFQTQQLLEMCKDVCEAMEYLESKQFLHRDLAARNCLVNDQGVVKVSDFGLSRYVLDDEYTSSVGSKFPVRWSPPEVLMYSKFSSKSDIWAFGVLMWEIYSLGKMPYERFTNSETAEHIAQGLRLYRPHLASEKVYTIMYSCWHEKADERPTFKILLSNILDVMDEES

inhibition at 1 µM: 49.8%
Compound: N=C(N)SCc1ccc(CN2C(=O)C(=Cc3ccc(Oc4cccc(Cl)c4Cl)cc3)c3cc([N+](=O)[O-])ccc32)cc1 [compound 6, 4-((3-(4-(2,3-dichlorophenoxy)benzylidene)-5-nitro-2-oxoindolin-1-yl)methyl) benzyl carbamimidothioate hydrobromide]
